In brackets after ≈: the same amount, converted by molar mass.
Key:
[1] = Approximate water solubility by solvent addition method (visual inspection of complete dissolution)
Description: The approximate water solubility of Form A and amorphous Rebaudioside X were determined by a solvent addition method in which a weighed sample was treated with aliquots of water. The mixture was generally vortexed and/or sonicated between additions to facilitate dissolution. Complete dissolution of the test material was determined by visual inspection. Solubility was estimated based on the total solvent used to provide complete dissolution. The actual solubility may be greater than the value calculated because of the use of solvent aliquots that were too large or due to a slow rate of dissolution.

[2] = Water solubility of starting sample and spray-dried product (Example 4); assay type: physicochemical
[3] = Duration of clarity of aqueous solutions at various test material/water ratios, with or without filtration (Example 9); assay type: physicochemical
Description: The water solubility of amorphous Rebaudioside X prepared according to Example 4 was compared in various test material/water ratios with or without filtration prior to solubility determination. Generally, filtration performed after dissolution of sample assist the duration of clarity of the sample (or delays the precipitation/recrystallization of sample). […]

[4] = Equilibrium solubility in water by UV absorbance at 205 nm (Example 10); assay type: physicochemical; conditions: 25°C; for Original Sample Concentration: 250 mg in 10 mL water
Description: Samples were analyzed with a Cary 50 UV-Vis dual beam spectrophotometer. The detector was zeroed with a cuvette filled with water prior to sample analysis. Samples were analyzed at room temperature in 1.0 cm quartz cuvette using a scan rate of 600 nm/min in a range of 200 - 400 nm.
25.8 mg of amorphous Rebaudioside X was added to a 10-mL volumetric flask and dissolved 10 mL with water. This stock solution was diluted to five concentration levels for UV measurement.
A calibration curve at 205 nm was established (Abs at 205 nm vs. concentration) to provide the equation y = 5.0625x + 0.0022. R^2 was 0.9999. This equation was used for the subsequent determination of Rebaudioside X concentrations.
250 mg of amorphous Rebaudioside X was added to an amber vial and 10 mL of water was added. The mixture was stirred at room temperature about 10 minutes to yield a transparent solution with only small amount of solid remaining. The mixture became opaque rapidly. The mixture was placed on a mechanical oscillator set at a speed of 250 and 25°C. At the sampling time point of 1, 16, 24, 48, 72, 96, and 192 hours, an aliquot of the slurry was transferred to a centrifuge tube and separated at a speed of 16K rcf for 15 minutes. 200 µL of the clear supernatant was transferred to a 50-mL volumetric flask, 10 mL of water was added and mixed well before UV analysis.

[5] = Dynamic Vapor Sorption (DVS) isotherm; assay type: physicochemical
Description: The Dynamic Vapor Sorption (DVS) DVS data were collected on a VTI SGA-100 Vapor Sorption Analyzer. NaCl and PVP were used as calibration standards. The sample was not dried prior to analysis. Sorption and desorption data were collected over a range from 5 to 95% RH at 10% RH increments under a nitrogen purge. The equilibrium criterion used for analysis was less than 0.0100% weight change in 5 minutes with a maximum equilibration time of 3 hours. Data were not corrected for the initial moisture content of the samples.

[6] = Table 6, water, solvent addition

C=C1C[C@@]23CC[C@H]4[C@@](C)(CCC[C@@]4(C)C(=O)O[C@@H]4O[C@H](CO)[C@@H](O)[C@H](O[C@@H]5O[C@H](CO)[C@@H](O)[C@H](O)[C@H]5O)[C@H]4O[C@@H]4O[C@H](CO)[C@@H](O)[C@H](O)[C@H]4O)[C@@H]2CC[C@]1(O[C@@H]1O[C@H](CO)[C@@H](O)[C@H](O[C@@H]2O[C@H](CO)[C@@H](O)[C@H](O)[C@H]2O)[C@H]1O[C@@H]1O[C@H](CO)[C@@H](O)[C@H](O)[C@H]1O)C3 [Amorphous (water process)]
Approximate Water Solubility [1, 6]: >10000 µg/mL

C=C1C[C@@]23CC[C@H]4[C@@](C)(CCC[C@@]4(C)C(=O)O[C@@H]4O[C@H](CO)[C@@H](O)[C@H](O[C@@H]5O[C@H](CO)[C@@H](O)[C@H](O)[C@H]5O)[C@H]4O[C@@H]4O[C@H](CO)[C@@H](O)[C@H](O)[C@H]4O)[C@@H]2CC[C@]1(O[C@@H]1O[C@H](CO)[C@@H](O)[C@H](O[C@@H]2O[C@H](CO)[C@@H](O)[C@H](O)[C@H]2O)[C@H]1O[C@@H]1O[C@H](CO)[C@@H](O)[C@H](O)[C@H]1O)C3 [Form A Rebaudioside X, (13-[2-O-β-D-glucopyranosyl-3-O-β-D-glucopyranosyl-β-D-glucopyranosyl)oxy] ent kaur-16-en-19-oic acid-[2-O-β-D-glucopyranosyl-3-O-β-D-glycopyranosyl) ester]
water solubility [2]: 0.05%
Approximate Water Solubility [1, 6]: 1400 µg/mL
Approximate Water Solubility ([1]; discussion text of Example 13): 14000 µg/mL

C=C1C[C@@]23CC[C@H]4[C@@](C)(CCC[C@@]4(C)C(=O)O[C@@H]4O[C@H](CO)[C@@H](O)[C@H](O[C@@H]5O[C@H](CO)[C@@H](O)[C@H](O)[C@H]5O)[C@H]4O[C@@H]4O[C@H](CO)[C@@H](O)[C@H](O)[C@H]4O)[C@@H]2CC[C@]1(O[C@@H]1O[C@H](CO)[C@@H](O)[C@H](O[C@@H]2O[C@H](CO)[C@@H](O)[C@H](O)[C@H]2O)[C@H]1O[C@@H]1O[C@H](CO)[C@@H](O)[C@H](O)[C@H]1O)C3 [amorphous Rebaudioside X, (13-[2-O-β-D-glucopyranosyl-3-O-β-D-glucopyranosyl-β-D-glucopyranosyl)oxy] ent kaur-16-en-19-oic acid-[2-O-β-D-glucopyranosyl-3-O-β-D-glycopyranosyl) ester]
water solubility [2]: greater than 1%
Duration of Clarity of Sample ([3]; Sample 1: 250 mg/500 mL water, not filtered): > 60 days^a
Duration of Clarity of Sample ([3]; Sample 2: 500 mg/500 mL water, not filtered): > 60 days^a
Duration of Clarity of Sample ([3]; Sample 3: 750 mg/500 mL water, not filtered): > 0.12 days
Duration of Clarity of Sample ([3]; Sample 5: 625 mg/250 mL water, filtered (0.22 µm membrane)): > 1 days
Duration of Clarity of Sample ([3]; Sample 6: 1750 mg/500 mL water, not filtered): ∼3 h
Duration of Clarity of Sample ([3]; Sample 7: 1750 mg/500 mL water, filtered (0.22 µm membrane)): > 1 days
Duration of Clarity of Sample ([3]; Sample 8: 1000 mg/100 mL water, filtered (0.22 µm membrane)): ∼2 h
Original Sample Concentration ([4]; sampling time 1 hrs): 5.8 mg/mL
Original Sample Concentration ([4]; sampling time 16 hrs): 2.7 mg/mL
Original Sample Concentration ([4]; sampling time 24 hrs): 2.6 mg/mL
Original Sample Concentration ([4]; sampling time 48 hrs): 2.5 mg/mL
Original Sample Concentration ([4]; sampling time 72 hrs): 2.8 mg/mL
Original Sample Concentration ([4]; sampling time 96 hrs): 2.8 mg/mL
Original Sample Concentration ([4]; sampling time 192 hrs): 2.6 mg/mL
solubility thermodynamic ([4]; water): 2600 µg/mL (≈ 2010 µM)
time until equilibrium was established ([4]; water): ≤ 16 h
weight loss upon desorption ([5]; DVS desorption from 95% to 5% RH): 26.0 wt%
weight gain with increasing relative humidity ([5]; DVS sorption from 5% to 95% RH): 26.3 wt%
weight loss upon equilibration at 5% RH ([5]; DVS, 5% RH): 3.1 wt%
approximate solubility ([1]; aqueous, grams of Rebaudioside X per 100 mL water): greater than 0.3%

From patent publication EP3653636A1, “COMPOSITIONS AND METHODS FOR IMPROVING REBAUDIOSIDE X SOLUBILITY” (The Coca-Cola Company, priority 2012, dated 2014)
